Data: patent publication US20090221697A1, “MACROLIDE CONJUGATES OF PYRROLIZINE AND INDOLIZINE COMPOUNDS AS INHIBITORS OF 5-LIPOOXYGENASE AND CYCLOOXYGENASE” (MERCKLE GMBH, priority 2005, published 2009)

Experiments:
[1] = test system: collagen-induced arthritis in DBA J1 mice; experiment: Collagen-induced arthritis (bovine collagen), further experiment, p.o. once daily (Table 3); format: in vivo; conditions: vehicle = 100%
Protocol: (§1) Efficacy of drugs in suppressing arthritis may be determined using animal models. The collagen-induced arthritis in rodents is a well established experimental model of rheumatoid arthritis and considered appropriate to test the efficacy of anti-inflammatory drugs. The model is performed by immunising animals with exogenous collagen (e.g. bovine or chick) and administering substances following the appearance of disease. Disease may be boosted to increase response. The data reported herein were generated using the murine model in DBA J1 mice. At day zero a collagen suspension in complete Freund's adjuvant was injected s.c. at the tail base. At day 20, collagen in incomplete Freund's adjuvant was injected at a nearby position on the tail base. When arthritis developed, animals were randomly assigned to treatment groups. Signs monitored included weight, paw score, paw thickness and overall condition. Animals were observed and treated for 10 days. Macrolide conjugates were formulated as solutions in 1.5% citrate, 6% fructose in water.
In a further experiment Arthritis was induced using bovine collagen as described above. Animals were treated with compounds p.o. once daily following positive development of disease. Comparison with control animals (untreated) was made at 9 days after treatment.

[2] = test system: collagen-induced arthritis in DBA J1 mice; experiment: Collagen-induced arthritis, arthritic score (Table 2); format: in vivo; design: key: −: healthy paw; +: one joint inflamed; ++: two types of joint inflamed (e.g. tarsal and digit); +++: inflammation of three joints in two separate parts of the paw; ++++: inflammation of whole paw; conditions: treated for 10 days after arthritis developed
Protocol: as §1

blood cells = experiment: Uptake of conjugates into blood cells (buffy coat preparations), LC/MS; format: in vitro ADME; design: key: −: excluded from blood cells; +: equal or similar; ++: >5-fold enhancement in blood cells; +++: >10-fold enhancement in blood cells; conditions: substrates 1 to 10 μM, 37° C., 5% CO2, screening samples at 0 and 120 minutes
Protocol: Freshly drawn heparinised blood or buffy coat preparations are used for the determination of conjugate uptake. Buffy coat preparations are preferred. They may be obtained from donor blood by simple centrifugation of whole blood (4795 g for 10 minutes). Following centrifugation, plasma is collected from the surface, after which immune cells are expressed from the donor bags along with the erythrocytes lying immediately below the leukocyte layer. This ensures high yields and a sufficient population of erythrocytes for partition. 5 ml of the resulting cell suspension are dispensed into T25 culture flasks. Substrates are added to a final concentration between 1 and 10 μM and the suspensions incubated at 37° C., in a 5% CO2 atmosphere. For analysis of uptake kinetics, samples are drawn at 0, 2, 5, 10, 30, 60, 90, 180, or 240 min after substrate addition. For screening purposes, samples are taken at 0 and 120 minutes.
Cell fractions were prepared using density gradient centrifugation. Mononuclear cells and polymorphonuclear cells are separated from erythrocytes essentially by layering the cell suspension on a viscous medium typically composed of a solution containing Ficoll or similar (commercial suppliers include: Lymphoprep, Axis Shield, 1031966; Lymphoflot HLA, 824010; or PMN Separation Medium Robbins Scientific 1068-00-0). The layered suspension is then centrifuged at 600 g, 20 min, after which the cell fractions and the plasma (incubation medium) fraction are removed by gentle aspiration, washed twice in PBS buffer, followed by estimation of the cell number and pellet volume.
Uptake of compounds is monitored using chromatographic analysis (LC/MS) with mass selective detection. Uptake is also normalized to the amount of cells based on both estimated volume and total protein. […] The supernatant is recovered and sub-sampled for protein and DNA content. Protein in the supernatant is precipitated by bringing the solution to 100% v/v ethanol and centrifuging again at 16100 g, 10 min. Compound uptake is normalized according to cytoplasmic volume of cells in order to obtain the average concentration in the cells. Cell volume is estimated by correlation of DNA, protein or haem content of lysed cell aliquots to cell number and packed volume prior to lysis.

[3] = dose 132 μmol/kg p.o. once daily
[4] = dose 66 μmol/kg p.o. once daily

SMILES	relative score at day 9 after onset of arthritis [1, 3] [%]	relative score at day 9 after onset of arthritis [1, 4] [%]	arthitic score [2]	Ratio internal over external concentration (blood cells)
CC1(C)Cc2c(-c3ccccc3)c(-c3ccc(Cl)cc3)c(CC(=O)O)n2C1 [Active moiety alone, licofelone, reference compound]	90			
CC[C@H]1OC(=O)[C@H](C)[C@@H](O)[C@H](C)[C@@H](O[C@@H]2O[C@H](C)C[C@H](N(C)C)[C@H]2OC(=O)Cc2c(-c3ccc(Cl)cc3)c(-c3ccccc3)c3n2CC(C)(C)C3)[C@](C)(O)C[C@@H](C)CN(C)[C@H](C)[C@@H](O)[C@]1(C)O [Compound 2]		44		
CC[C@H]1OC(=O)[C@H](C)C(=O)[C@H](C)[C@@H](O[C@@H]2O[C@H](C)C[C@H](N(C)C)[C@H]2OC(=O)Cc2c(-c3ccc(Cl)cc3)c(-c3ccccc3)c3n2CC(C)(C)C3)[C@](C)(O)C[C@@H](C)CN(C)[C@H](C)[C@@H](O)[C@]1(C)O [Compound 4]	33	76		
CC[C@H]1OC(=O)[C@H](C)C(=O)[C@H](C)[C@@H](O[C@@H]2O[C@H](C)C[C@H](N(C)C)[C@H]2OC(=O)Cc2c(-c3cc4ccccc4o3)c(-c3ccccc3)c3n2CC(C)(C)C3)[C@](C)(O)C[C@@H](C)CN(C)[C@H](C)[C@@H](O)[C@]1(C)O [Compound 5]			−	+++ (>10-fold enhancement in blood cells)
CC[C@H]1OC(=O)[C@H](C)C(=O)[C@H](C)[C@@H](O[C@@H]2O[C@H](C)C[C@H](N(C)C)[C@H]2OC(=O)Cc2c(-c3ccc(Cl)s3)c(-c3ccccc3)c3n2CC(C)(C)C3)[C@](C)(O)C[C@@H](C)CN(C)[C@H](C)[C@@H](O)[C@]1(C)O [Compound 8]			+	++ (>5-fold enhancement in blood cells)
CC[C@H]1OC(=O)[C@H](C)C2O[C@](C)(C[C@@H](C)CN(C)[C@H](C)[C@@H](O)[C@]1(C)O)[C@H](O[C@@H]1O[C@H](C)C[C@H](N(C)C)[C@H]1OC(=O)Cc1c(-c3ccc(Cl)cc3)c(-c3ccccc3)c3n1CC(C)(C)C3)[C@H]2C [Compound 9]	14	67		
CC1(C)Cc2c(-c3ccccc3)c(-c3cc4ccccc4o3)c(CC(=O)O)n2C1 [Drug component of 5 (without macrolide), (2-benzofuran-2-yl-6,6-dimethyl-1-phenyl-6,7-dihydro-5H-pyrrolizin-3-yl)-acetic acid, reference compound]			++++	+
CC1(C)Cc2c(-c3ccccc3)c(-c3ccc(Cl)s3)c(CC(=O)O)n2C1 [Drug component of 8 (without macrolide), [2-(5-chloro-thiophen-2-yl)-6,6-dimethyl-1-phenyl-6,7-dihydro-5H-pyrrolizin-3-yl]-acetic acid, reference compound]			++	+
